The source of these data is patent US10300020B2 (West-Ward Pharmaceuticals International Limited, priority 2005, dated 2019).

For this data set the following is noted: calcium acetate used in Example 1. From the text:
In another preferred embodiment, the bulk density is between about 0.30 g/cc to about less than 0.55 g/cc. More preferably the bulk density is between about 0.30 g/cc to about 0.45 g/cc.

As for `CC(=O)[O-].CC(=O)[O-].[Ca+2]` [calcium acetate], the bulk density is 0.47 g/cc.
